Reference: patent publication US8334382B2, “Substituted biaryl piperazinyl-pyridine analogues” (Neurogen Corporation, priority 2004, dated 2012)

target: T1, human capsaicin receptor (Homo sapiens, UniProt Q8NER1); experiment: Calcium mobilization assay, determination of antagonist activity; format: cell-based; conditions: capsaicin at EC50; cells expressing human capsaicin receptor; Example 6
T1 construct: expressed in transfected cells; host or cells: HEK293, stably transfected with pBK-CMV construct
T1 sequence (Q8NER1 whole entry): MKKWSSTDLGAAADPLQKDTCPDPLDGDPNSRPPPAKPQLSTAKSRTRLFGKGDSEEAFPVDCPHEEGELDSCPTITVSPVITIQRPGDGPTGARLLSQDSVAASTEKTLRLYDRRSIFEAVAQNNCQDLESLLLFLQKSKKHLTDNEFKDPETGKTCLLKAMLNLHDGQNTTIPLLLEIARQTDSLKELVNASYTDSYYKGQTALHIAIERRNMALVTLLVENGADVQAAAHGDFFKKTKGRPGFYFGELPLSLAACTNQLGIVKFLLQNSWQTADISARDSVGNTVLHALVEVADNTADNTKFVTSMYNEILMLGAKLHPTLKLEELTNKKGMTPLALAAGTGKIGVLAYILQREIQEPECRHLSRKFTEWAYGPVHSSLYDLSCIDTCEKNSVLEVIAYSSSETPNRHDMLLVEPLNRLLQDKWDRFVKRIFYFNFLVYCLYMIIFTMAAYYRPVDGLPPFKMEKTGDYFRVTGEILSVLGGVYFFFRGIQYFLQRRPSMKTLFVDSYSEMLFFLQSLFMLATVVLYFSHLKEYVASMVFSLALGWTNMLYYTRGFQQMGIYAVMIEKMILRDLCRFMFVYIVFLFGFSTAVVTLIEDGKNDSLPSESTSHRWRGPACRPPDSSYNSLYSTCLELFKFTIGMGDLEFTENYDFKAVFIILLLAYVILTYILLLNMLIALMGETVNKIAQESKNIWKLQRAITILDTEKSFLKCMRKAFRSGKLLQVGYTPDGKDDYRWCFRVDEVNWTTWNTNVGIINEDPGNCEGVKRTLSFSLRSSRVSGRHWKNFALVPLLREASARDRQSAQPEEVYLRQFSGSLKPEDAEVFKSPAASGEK
Experimental: A cDNA encoding full length human capsaicin receptor (SEQ ID NO:1, 2 or 3 of U.S. Pat. No. 6,482,611) is subcloned in the plasmid pBK-CMV (Stratagene, La Jolla, Calif.) for recombinant expression in mammalian cells.
Human embryonic kidney (HEK293) cells are transfected with the pBK-CMV expression construct encoding the full length human capsaicin receptor using standard methods. The transfected cells are selected for two weeks in media containing G418 (400 μg/ml) to obtain a pool of stably transfected cells. Independent clones are isolated from this pool by limiting dilution to obtain clonal stable cell lines for use in subsequent experiments.
Cells transfected with expression plasmids (as described in Example 4) and thereby expressing human capsaicin receptor are seeded and grown to 70-90% confluency in FALCON black-walled, clear-bottomed 96-well plates (#3904, BECTON-DICKINSON, Franklin Lakes, N.J.). The culture medium is emptied from the 96 well plates and FLUO-3 AM calcium sensitive dye (Molecular Probes, Eugene, Oreg.) is added to each well (dye solution: 1 mg FLUO-3 AM, 440 μL DMSO and 440 μl 20% pluronic acid in DMSO, diluted 1:250 in Krebs-Ringer HEPES (KRH) buffer (25 mM HEPES, 5 mM KCl, 0.96 mM NaH2PO4, 1 mM MgSO4, 2 mM CaCl2, 5 mM glucose, 1 mM probenecid, pH 7.4), 50 μl diluted solution per well). Plates are covered with aluminum foil and incubated at 37° C. for 1-2 h in an environment containing 5% CO2. After the incubation, the dye is emptied from the plates, and the cells are washed once with KRH buffer, and resuspended in KRH buffer.
To measure the ability of a test compound to agonize or antagonize a calcium mobilization response in cells expressing capsaicin receptors to capsaicin or other vanilloid agonist, the EC50 of the agonist capsaicin is first determined. An additional 20 μl of KRH buffer and 1 μl DMSO is added to each well of cells, prepared as described above. 100 μl capsaicin in KRH buffer is automatically transferred by the FLIPR instrument to each well. Capsaicin-induced calcium mobilization is monitored using either FLUOROSKAN ASCENT (Labsystems; Franklin, Mass.) or FLIPR (fluorometric imaging plate reader system; Molecular Devices, Sunnyvale, Calif.) instruments. Data obtained between 30 and 60 seconds after agonist application are used to generate an 8-point concentration response curve, with final capsaicin concentrations of 1 nM to 3 μM. KALEIDAGRAPH software (Synergy Software, Reading, Pa.) is used to fit the data to the equation: y=a*(1/(1+(b/x)^c)) to determine the 50% excitatory concentration (EC50) for the response. In this equation, y is the maximum fluorescence signal, x is the concentration of the agonist or antagonist (in this case, capsaicin), a is the Emax, b corresponds to the EC50 value and c is the Hill coefficient. Determination of Agonist Activity
Test compounds are dissolved in DMSO, diluted in 20 μl KRH buffer so that the final concentration of test compounds in the assay well is between 1 μM and 5 μM, and added to cells prepared as described above. The 96 well plates containing prepared cells and test compounds are incubated in the dark, at room temperature for 0.5 to 6 h. It is important that the incubation not continue beyond 6 h. Just prior to determining the fluorescence response, 100 μl capsaicin in KRH buffer at twice the EC50 concentration determined as described above is automatically added by the FLIPR instrument to each well of the 96 well plate for a final sample volume of 200 μl and a final capsaicin concentration equal to the EC50. The final concentration of test compounds in the assay wells is between 1 μM and 5 μM. […] The concentration of antagonist required to provide a 50% decrease, relative to the response observed in the presence of capsaicin and without antagonist, is the IC50 for the antagonist, and is preferably below 1 micromolar, 100 nanomolar, 10 nanomolar or 1 nanomolar.

Structure (SMILES)	IC50 [nM]
Cc1cc(C(N)=O)cnc1N1CCN(c2cc(-c3ccccc3)nc(N(C)C)n2)[C@H](C)C1 [Example 84, 6-[4-(2-Dimethylamino-6-phenyl-pyrimidin-4-yl)-3-(R)-methyl-piperazin-1-yl]-5-methyl-nicotinamide]	≤ 1000
C[C@@H]1CN(c2ncc(CC(=O)O)cc2Cl)CCN1c1cc(-c2ccc(F)cc2)nc(N2CCC[C@H]2C)n1 [Example 101, (5-Chloro-6-{4-[6-(4-fluoro-phenyl)-2-(2-(R)-methyl-pyrrolidin-1-yl)-pyrimidin-4-yl]-3-(R)-methyl-piperazin-1-yl}-pyridin-3-yl)-acetic acid]	≤ 1000
CCOC(=O)c1cnc(N2CCN(c3cc(-c4ccc(F)c(Cl)c4)nc(N4CCC[C@H]4C)n3)C[C@H]2C)c(Cl)c1 [Example 174, 5-Chloro-6-{4-[6-(3-chloro-4-fluoro-phenyl)-2-(2-(R)-methyl-pyrrolidin-1-yl)-pyrimidin-4-yl]-2-(R)-methyl-piperazin-1-yl}-nicotinic acid ethyl ester]	≤ 1000
Cc1cc(C(=O)N(C)CCCN(C)C)cnc1N1CCN(c2cc(-c3ccc(F)cc3)nc(N3CCCC3C)n2)CC1 (stereo not shown) [Example 137, N-[3-(dimethylamino)propyl]-6-{4-[6-(4-fluorophenyl)-2-(2-methylpyrrolidin-1-yl)pyrimidin-4-yl]piperazin-1-yl}-N,5-dimethylnicotinamide]	≤ 1000
Cc1cccc(-c2cc(N3CCN(c4ncc(C(=O)O)cc4C)CC3)nc(N3CCCC3C)n2)c1 (stereo not shown) [Example 76, 5-Methyl-6-{4-[2-(2-methyl-pyrrolidin-1-yl)-6-m-tolyl-pyrimidin-4-yl]-piperazin-1-yl}-nicotinic acid]	≤ 1000
C[C@@H]1CN(c2ncc(CO)cc2Cl)CCN1c1cc(-c2ccc(F)cc2)nc(N2CCC[C@H]2C)n1 [Example 98, (5-Chloro-6-{4-[6-(4-fluoro-phenyl)-2-(2-(R)-methyl-pyrrolidin-1-yl)-pyrimidin-4-yl]-3-(R)-methyl-piperazin-1-yl}-pyridin-3-yl)-methanol]	≤ 1000
CC1CCCN1c1nc(-c2ccc(F)c(Cl)c2)cc(N2CCN(c3ncc(C(=O)O)cc3Cl)CC2)n1 (stereo not shown) [Example 21, 5-Chloro-6-{4-[6-(3-chloro-4-fluoro-phenyl)-2-(2-methyl-pyrrolidin-1-yl)-pyrimidin-4-yl]-piperazin-1-yl}-nicotinic acid]	≤ 1000
Cc1cc(OCCN(C)C)cnc1N1CCN(c2cc(-c3ccc(F)c(Cl)c3)nc(N3CCCC3C)n2)CC1 (stereo not shown) [Example 6, [2-(6-{4-[6-(3-Chloro-4-fluoro-phenyl)-2-(2-methyl-pyrrolidin-1-yl)-pyrimidin-4-yl]-piperazin-1-yl}-5-methyl-pyridin-3-yloxy)-ethyl]-dimethyl-amine]	≤ 1000
Cc1cc(C(=O)O)cnc1N1CCN(c2cc(-c3ccc(F)cc3)nc(N3CCC[C@H]3C)n2)[C@H](C)C1 [Example 95, 6-{4-[6-(4-Fluoro-phenyl)-2-(2-(R)-methyl-pyrrolidin-1-yl)-pyrimidin-4-yl]-3-(R)-methyl-piperazin-1-yl}-5-methyl-nicotinic acid]	≤ 1000
C[C@@H]1CN(c2ncc(C(=O)O)cc2Cl)CCN1c1cc(-c2ccccc2)nc(N2CCC[C@H]2CO)n1 [Example 163, 5-Chloro-6-{4-[2-(2-(S)-hydroxymethyl-pyrrolidin-1-yl)-6-phenyl-pyrimidin-4-yl]-3-(R)-methyl-piperazin-1-yl}-nicotinic acid]	≤ 1000
Cc1cc(C(N)=O)cnc1N1CCN(c2cc(-c3ccncc3)nc(N(C)C)n2)[C@H](C)C1 [Example 85, 6-[4-(2-Dimethylamino-6-pyridin-4-yl-pyrimidin-4-yl)-3-(R)-methyl-piperazin-1-yl]-5-methyl-nicotinamide]	≤ 1000
C[C@@H]1CN(c2ncc(CO)cc2Cl)CCN1c1cc(-c2ccc(F)c(Cl)c2)nc(N2CCCCC2)n1 [Example 173, (5-Chloro-6-{4-[6-(3-chloro-4-fluoro-phenyl)-2-piperidin-1-yl-pyrimidin-4-yl]-3-(R)-methyl-piperazin-1-yl}-pyridin-3-yl)-methanol]	≤ 1000
C[C@@H]1CN(c2ncc(C(=O)O)cc2Cl)CCN1c1cc(-c2ccc(F)cc2)nc(N2CCC[C@H]2C)n1 [Example 94, 5-Chloro-6-{4-[6-(4-fluoro-phenyl)-2-(2-(R)-methyl-pyrrolidin-1-yl) - pyrimidin-4-yl]-3-(R)-methyl-piperazin-1-yl} - nicotinic acid]	≤ 1000
Cc1cc(C(=O)O)cnc1N1CCN(c2cc(-c3ccc(F)cc3)nc(N(C)C(C)C)n2)[C@H](C)C1 [Example 153, 6-{4-[6-(4-Fluoro-phenyl)-2-(isopropyl-methyl-amino)-pyrimidin-4-yl]-3-(R)-methyl-piperazin-1-yl}-5-methyl-nicotinic acid]	≤ 1000
Cc1cccc(-c2cc(N3CCN(c4ncc(C(=O)O)cc4C)C[C@H]3C)nc(N3CCCC3C)n2)c1 (stereo partly drawn) [Example 69, 5-Methyl-6-{3-(R)-methyl-4-[2-(2-methyl-pyrrolidin-1-yl)-6-m-tolyl-pyrimidin-4-yl]-piperazin-1-yl}-nicotinic acid]	≤ 1000

Other lines, results leading:

IC50 [nM]	Structure (SMILES)
≤ 1000	CC1CCCN1c1nc(-c2ccc(F)c(Cl)c2)cc(N2CCN(c3ncc(CO)cc3Cl)CC2)n1 (stereo not shown) [Example 10, (5-Chloro-6-{4-[6-(3-chloro-4-fluoro-phenyl)-2-(2-methyl-pyrrolidin-1-yl)-pyrimidin-4-yl]-piperazin-1-yl}-pyridin-3-yl)-methanol]
≤ 1000	Cc1cc(C(=O)O)cnc1N1CCN(c2cc(-c3ccc(F)c(Cl)c3)nc(N3CCC[C@H]3C)c2)[C@H](C)C1 [Example 178, 6-{4-[2-(3-Chloro-4-fluoro-phenyl)-6-(2-(R)-methyl-pyrrolidin-1-yl)-pyridin-4-yl]-3-(R)-methyl-piperazin-1-yl}-5-methyl-nicotinic acid]
≤ 1000	Cc1cc(C(=O)N2CCCCCC2)cnc1N1CCN(c2cc(-c3ccc(F)cc3)nc(N3CCCC3C)n2)CC1 (stereo not drawn) [Example 126, l-[(6-{4-[6-(4-fluorophenyl)-2-(2-methylpyrrolidin-1-yl)pyrimidin-4-yl]piperazin-1-yl}-5-methylpyridin-3-yl)carbonyl]azepane]
≤ 1000	CC1CCCN1c1nc(-c2ccc(F)c(Cl)c2)cc(N2CCN(c3ncc(C(=O)O)cc3Cl)C[C@H]2C)n1 (stereo partly drawn) [Example 9, 5-Chloro-6-{4-[6-(3-chloro-4-fluoro-phenyl)-2-(2-methyl-pyrrolidin-1-yl)-pyrimidin-4-yl]-3-(R)-methyl-piperazin-l-yl}-nicotinic acid]
≤ 1000	CC(C)N(C)c1nc(-c2ccc(F)cc2)cc(N2CCN(c3ncc(C(=O)O)cc3Cl)C[C@H]2C)n1 [Example 157, 5-Chloro-6-{4-[6-(4-fluoro-phenyl)-2-(isopropyl-methyl-amino)-pyrimidin-4-yl]-3-(R)-methyl-piperazin-1-yl}-nicotinic acid]
≤ 1000	CC1CCCN1c1nc(-c2ccc(F)c(Cl)c2)cc(N2CCN(c3ncc(CN(C)C)cc3Cl)CC2)n1 (stereo not drawn) [Example 19, (5-Chloro-6-{4-[6-(3-chloro-4-fluoro-phenyl)-2-(2-methyl-pyrrolidin-l-yl)-pyrimidin-4-yl]-piperazin-1-yl}-pyridin-3-ylmethyl)-dimethyl-amine]
≤ 1000	C[C@@H]1CCCN1c1nc(-c2ccc(F)cc2)cc(N2CCN(c3ncc(CC(=O)O)cc3Cl)CC2)n1 [Example 93, (5-Chloro-6-{4-[6-(4-fluoro-phenyl)-2-(2-(R)-methyl-pyrrolidin-1-yl)-pyrimidin-4-yl]-piperazin-1-yl}-pyridin-3-yl)-acetic acid]
